How the values were obtained:
[1] = system: IL-13 induced STAT6 phosphorylation in BEAS-2B human lung epithelial cells; experiment: Cellular JAKI potency assay (BEAS-2B); assay type: cell-based; conditions: Homo sapiens, BEAS-2B, BEAS-2B cells, read-out: BEAS2B pIC50 (converted)
Experimental: The JAKI cellular potency assay was carried out by measuring inhibition of interleukin-13 (IL-13, R&D Systems) induced STAT6 phosphorylation in BEAS-2B human lung epithelial cells (ATCC). BEAS-2B cells were grown at 37° C. in a 5% CO2 humidified incubator in 50% DMEM/50% F-12 medium (Life Technologies) supplemented with 10% FBS (Hyclone), 100 U/mL penicillin, 100 μg/mL streptomycin (Life Technologies), and 2 mM GlutaMAX (Life Technologies). On day 1 of the assay, cells were seeded at a 7,500 cells/well density in white poly-D-lysine-coated 384-well plates (Corning) with 25 μL medium and were allowed to adhere overnight in the incubator. On day 2 of the assay, the medium was removed and replaced with 12 μL of assay buffer (Hank's Balanced Salt Solution/HBSS, 25 mM HEPES, and 1 mg/ml bovine serum albumin/BSA) containing dose-responses of test compounds. Compounds were serially diluted in DMSO and then diluted another 1000-fold in media to bring the final DMSO concentration to 0.1%. Cells were incubated with test compounds at 37° C. for 1 h and followed by the addition of 12 μl of pre-warmed IL-13 (80 ng/mL in assay buffer) for stimulation. After incubating at 37° C. for 30 min, the assay buffer (containing compound and IL-13) was removed, and 10 μL of cell lysis buffer (25 mM HEPES, 0.1% SDS, 1% NP-40, 5 mM MgCl2, 1.3 mM EDTA, 1 mM EGTA, supplemented with Complete Ultra mini protease inhibitors and PhosSTOP from Roche Diagnostics). The plates were shaken at ambient temperature for 30 min before the addition of detection reagents. Levels of pSTAT6 were measured using the AlphaLISA SureFire Ultra pSTAT6 (Tyr641) assay kit from PerkinElmer. For dose-response analysis, percent inhibition data were plotted vs. compound concentrations, and IC50 values were determined from a 4-parameter robust fit model with the Graphpad Prism software. Results are expressed as the negative logarithm of the IC50 value, pIC50.
Test compounds having a lower IC50 value or higher pIC50 value in this assay show greater inhibition of IL-13 induced STAT6 phosphorylation.

JAK1 = JAK1 (Homo sapiens (Human), UniProt P23458); experiment: Biochemical JAK kinase assay (LanthaScreen), JAK1; conditions: for Ki: read-out: JAK1 pKi (converted)
Sequence of JAK1 (P23458 whole entry): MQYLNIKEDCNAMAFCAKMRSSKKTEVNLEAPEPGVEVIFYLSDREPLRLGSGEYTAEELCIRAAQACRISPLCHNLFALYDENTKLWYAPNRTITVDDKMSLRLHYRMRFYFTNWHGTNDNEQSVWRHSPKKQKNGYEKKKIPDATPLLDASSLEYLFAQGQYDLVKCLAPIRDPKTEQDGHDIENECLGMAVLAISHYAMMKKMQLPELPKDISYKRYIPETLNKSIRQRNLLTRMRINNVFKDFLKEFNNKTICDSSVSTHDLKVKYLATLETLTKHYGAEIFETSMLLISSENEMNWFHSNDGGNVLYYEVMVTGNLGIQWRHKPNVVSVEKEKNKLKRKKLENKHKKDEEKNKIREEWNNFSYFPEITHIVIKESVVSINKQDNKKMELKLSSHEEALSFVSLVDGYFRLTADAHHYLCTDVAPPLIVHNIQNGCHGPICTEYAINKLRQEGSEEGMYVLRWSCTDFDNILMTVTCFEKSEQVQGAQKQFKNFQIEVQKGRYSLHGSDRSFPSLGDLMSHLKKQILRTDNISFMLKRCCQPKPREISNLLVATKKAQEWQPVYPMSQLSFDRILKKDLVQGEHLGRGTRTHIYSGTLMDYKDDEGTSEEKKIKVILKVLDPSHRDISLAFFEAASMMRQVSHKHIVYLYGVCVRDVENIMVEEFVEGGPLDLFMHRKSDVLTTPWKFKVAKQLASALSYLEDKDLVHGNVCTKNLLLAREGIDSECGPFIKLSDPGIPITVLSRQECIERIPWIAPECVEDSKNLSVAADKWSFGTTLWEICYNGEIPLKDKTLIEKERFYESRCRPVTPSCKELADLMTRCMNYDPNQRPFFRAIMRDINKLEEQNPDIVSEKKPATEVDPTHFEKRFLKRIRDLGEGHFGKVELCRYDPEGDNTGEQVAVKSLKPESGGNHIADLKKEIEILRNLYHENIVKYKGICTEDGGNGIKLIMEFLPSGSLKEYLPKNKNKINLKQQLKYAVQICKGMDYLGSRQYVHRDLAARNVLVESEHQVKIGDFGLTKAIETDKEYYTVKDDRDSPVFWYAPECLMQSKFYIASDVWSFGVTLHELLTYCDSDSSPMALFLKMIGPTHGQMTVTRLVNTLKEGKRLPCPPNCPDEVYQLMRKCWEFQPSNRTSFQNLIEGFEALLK
Experimental: (§1) A panel of four LanthaScreen JAK biochemical assays (JAK1, 2, 3 and Tyk2) were carried in a common kinase reaction buffer (50 mM HEPES, pH 7.5, 0.01% Brij-35, 10 mM MgCl2, and 1 mM EGTA). Recombinant GST-tagged JAK enzymes and a GFP-tagged STAT1 peptide substrate were obtained from Life Technologies.
(§2) Serially diluted compounds were pre-incubated with each of the four JAK enzymes and the substrate in white 384-well microplates (Corning) at ambient temperature for 1 h. ATP was subsequently added to initiate the kinase reactions in 10 μL total volume, with 1% DMSO. The final enzyme concentrations for JAK1, 2, 3 and Tyk2 are 4.2 nM, 0.1 nM, 1 nM, and 0.25 nM respectively; the corresponding Km ATP concentrations used are 25 μM, 3 μM, 1.6 μM, and 10 μM; while the substrate concentration is 200 nM for all four assays. Kinase reactions were allowed to proceed for 1 hour at ambient temperature before a 10 μL preparation of EDTA (10 mM final concentration) and Tb-anti-pSTAT1 (pTyr701) antibody (Life Technologies, 2 nM final concentration) in TR-FRET dilution buffer (Life Technologies) was added. The plates were allowed to incubate at ambient temperature for 1 h before being read on the EnVision reader (Perkin Elmer). Emission ratio signals (520 nm/495 nm) were recorded and utilized to calculate the percent inhibition values based on DMSO and background controls.
(§3) For dose-response analysis, percent inhibition data were plotted vs. compound concentrations, and IC50 values were determined from a 4-parameter robust fit model with the Prism software (GraphPad Software). Results were expressed as pIC50 (negative logarithm of IC50) and subsequently converted to pKi (negative logarithm of dissociation constant, Ki) using the Cheng-Prusoff equation.
(§4) Test compounds having a lower Ki value or higher pKi value in the four JAK assays show greater inhibition of JAK activity.

JAK2 = JAK2 (Homo sapiens (Human), UniProt O60674); experiment: Biochemical JAK kinase assay (LanthaScreen), JAK2; conditions: for Ki: read-out: JAK2 pKi (converted)
Sequence of JAK2 (O60674 whole entry): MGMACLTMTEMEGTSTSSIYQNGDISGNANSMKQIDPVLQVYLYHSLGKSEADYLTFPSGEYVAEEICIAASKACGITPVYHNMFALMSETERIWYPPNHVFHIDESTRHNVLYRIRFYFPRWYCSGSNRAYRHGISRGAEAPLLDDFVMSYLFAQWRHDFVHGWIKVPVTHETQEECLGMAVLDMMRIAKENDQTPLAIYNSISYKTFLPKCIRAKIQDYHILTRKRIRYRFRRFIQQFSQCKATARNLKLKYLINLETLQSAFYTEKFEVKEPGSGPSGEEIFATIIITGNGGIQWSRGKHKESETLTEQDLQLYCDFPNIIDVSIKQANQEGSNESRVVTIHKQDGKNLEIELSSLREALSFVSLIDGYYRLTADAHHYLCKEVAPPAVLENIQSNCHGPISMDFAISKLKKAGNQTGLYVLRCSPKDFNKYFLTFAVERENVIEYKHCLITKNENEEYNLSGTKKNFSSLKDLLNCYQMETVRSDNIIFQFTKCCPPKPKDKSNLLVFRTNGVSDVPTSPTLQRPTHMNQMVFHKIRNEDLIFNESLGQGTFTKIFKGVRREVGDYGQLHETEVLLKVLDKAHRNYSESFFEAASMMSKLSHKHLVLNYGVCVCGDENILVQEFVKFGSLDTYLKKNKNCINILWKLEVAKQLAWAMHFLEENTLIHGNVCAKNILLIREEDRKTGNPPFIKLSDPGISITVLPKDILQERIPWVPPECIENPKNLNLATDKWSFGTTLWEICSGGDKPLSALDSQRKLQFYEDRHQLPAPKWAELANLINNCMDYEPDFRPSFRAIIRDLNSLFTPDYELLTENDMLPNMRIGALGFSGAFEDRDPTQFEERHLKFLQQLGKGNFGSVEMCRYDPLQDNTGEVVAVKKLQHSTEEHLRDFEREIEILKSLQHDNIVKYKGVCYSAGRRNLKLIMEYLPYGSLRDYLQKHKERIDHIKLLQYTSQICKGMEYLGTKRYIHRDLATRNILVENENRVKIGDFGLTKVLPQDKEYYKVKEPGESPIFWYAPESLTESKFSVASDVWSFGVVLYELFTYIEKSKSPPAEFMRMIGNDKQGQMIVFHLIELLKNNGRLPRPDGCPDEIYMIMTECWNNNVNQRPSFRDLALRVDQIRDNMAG
Experimental: as §1, §2, §3, §4

| Structure (SMILES) | IC50 [1] [nM] | JAK1 pKi (JAK1) | JAK2 pKi (JAK2) | Ki (JAK1) [nM] | Ki (JAK2) [nM] |
| --- | --- | --- | --- | --- | --- |
| CCc1cc(O)ccc1-c1ccc2c(-c3nc(C4=CCN(CC5COC5)C4)c[nH]3)n[nH]c2c1 [Example 71] | 3.16 to 10 | A (A represents a pKi value ≥10 (Ki≤0.1 nM)) | A (A represents a pKi value ≥10 (Ki≤0.1 nM)) | – | – |
| CCc1cc(O)ccc1-c1ccc2c(-c3nc(C4=CCN(C5CCOCC5)C4)c[nH]3)n[nH]c2c1 [Example 72] | 3.16 to 10 | A (A represents a pKi value ≥10 (Ki≤0.1 nM)) | A (A represents a pKi value ≥10 (Ki≤0.1 nM)) | – | – |
| CCc1cc(O)ccc1-c1ccc2c(-c3nc(C4=CCN(C5COC5)C4)c[nH]3)n[nH]c2c1 [Example 73] | 10 to 31.6 | – | A (A represents a pKi value ≥10 (Ki≤0.1 nM)) | 0.1 to 1 | – |
| CCc1cc(O)ccc1-c1ccc2c(-c3nc(C4=CCN(CC5COC5)C4)c[nH]3)n[nH]c2c1F [Example 74] | 10 to 31.6 | – | A (A represents a pKi value ≥10 (Ki≤0.1 nM)) | 0.1 to 1 | – |
| CCc1cc(O)ccc1-c1ccc2c(-c3nc(C4=CCN(CCSC)CC4)c[nH]3)n[nH]c2c1 [Example 76] | 10 to 31.6 | – | – | 0.1 to 1 | 0.1 to 1 |
| CCc1cc(O)ccc1-c1ccc2c(-c3nc(C4=CCN(CCS(C)(=O)=O)CC4)c[nH]3)n[nH]c2c1 [Example 77] | 10 to 31.6 | – | A (A represents a pKi value ≥10 (Ki≤0.1 nM)) | 0.1 to 1 | – |
| CCc1cc(O)ccc1-c1ccc2c(-c3nc(C4=CCN(CC(=O)NC)CC4)c[nH]3)n[nH]c2c1 [Example 78] | 10 to 31.6 | – | A (A represents a pKi value ≥10 (Ki≤0.1 nM)) | 0.1 to 1 | – |
| CCc1cc(O)ccc1-c1ccc2c(-c3nc(C4=CCN(CC(=O)NC(C)(C)C)CC4)c[nH]3)n[nH]c2c1 [Example 79] | 10 to 31.6 | – | – | 0.1 to 1 | 0.1 to 1 |
| CCc1cc(O)ccc1-c1ccc2c(-c3nc(C4=CCN(CCS(=O)(=O)NC)CC4)c[nH]3)n[nH]c2c1 [Example 80] | 10 to 31.6 | – | A (A represents a pKi value ≥10 (Ki≤0.1 nM)) | 0.1 to 1 | – |
| CCc1cc(O)ccc1-c1ccc2c(-c3nc(C4=CCN(CCS(C)(=O)=O)CC4)c[nH]3)n[nH]c2c1F [Example 82] | 10 to 31.6 | – | – | 0.1 to 1 | 0.1 to 1 |
| CCc1cc(O)ccc1-c1ccc2c(-c3nc(C4=CCN(CC(=O)NC(C)(C)C)CC4)c[nH]3)n[nH]c2c1F [Example 83] | 31.6 to 100 | – | – | 1 to 10 | 0.1 to 1 |
| CCc1cc(O)ccc1-c1ccc2c(-c3nc(C4=CCN(C5CCNC5=O)CC4)c[nH]3)n[nH]c2c1F (stereo not drawn) [Example 84] | 31.6 to 100 | – | – | 0.1 to 1 | 0.1 to 1 |
| CCc1cc(O)ccc1-c1ccc2c(-c3nc(C4=CCN(CCS(=O)(=O)NC)CC4)c[nH]3)n[nH]c2c1F [Example 85] | 31.6 to 100 | – | – | 0.1 to 1 | 0.1 to 1 |
| CCc1cc(O)ccc1-c1ccc2c(-c3nc(C4=CCCN(CCSC)C4)c[nH]3)n[nH]c2c1 [Example 86] | 10 to 31.6 | – | – | 0.1 to 1 | 0.1 to 1 |
| CCc1cc(O)ccc1-c1ccc2c(-c3nc(C4=CCCN(CCS(C)(=O)=O)C4)c[nH]3)n[nH]c2c1 [Example 87] | 10 to 31.6 | – | A (A represents a pKi value ≥10 (Ki≤0.1 nM)) | 0.1 to 1 | – |
| CCc1cc(O)ccc1-c1ccc2c(-c3nc(C4=CCCN(CC(=O)NC)C4)c[nH]3)n[nH]c2c1 [Example 88] | 10 to 31.6 | – | A (A represents a pKi value ≥10 (Ki≤0.1 nM)) | 0.1 to 1 | – |

| Structure (SMILES) | IC50 [1] [nM] | JAK1 pKi (JAK1) | JAK2 pKi (JAK2) | Ki (JAK1) [nM] | Ki (JAK2) [nM] |
| --- | --- | --- | --- | --- | --- |
| CCc1cc(O)ccc1-c1ccc2c(-c3nc(C4=CCCN(CCS(=O)(=O)NC)C4)c[nH]3)n[nH]c2c1 [Example 89] | 10 to 31.6 | – | A (A represents a pKi value ≥10 (Ki≤0.1 nM)) | 0.1 to 1 | – |
| CCc1cc(O)ccc1-c1ccc2c(-c3nc(C4=CCCN(CCS(C)(=O)=O)C4)c[nH]3)n[nH]c2c1F [Example 91] | 10 to 31.6 | – | – | 0.1 to 1 | 0.1 to 1 |
| CCc1cc(O)ccc1-c1ccc2c(-c3nc(C4=CCCN(CC(=O)NC)C4)c[nH]3)n[nH]c2c1F [Example 92] | 10 to 31.6 | – | – | 1 to 10 | 0.1 to 1 |
| CCc1cc(O)ccc1-c1ccc2c(-c3nc(C4=CCN(CC(=O)NC)C4)c[nH]3)n[nH]c2c1 [Example 93] | 3.16 to 10 | – | A (A represents a pKi value ≥10 (Ki≤0.1 nM)) | 0.1 to 1 | – |
| CCc1cc(O)ccc1-c1ccc2c(-c3nc(C4=CCN(CCC(=O)NC)C4)c[nH]3)n[nH]c2c1 [Example 95] | 10 to 31.6 | A (A represents a pKi value ≥10 (Ki≤0.1 nM)) | A (A represents a pKi value ≥10 (Ki≤0.1 nM)) | – | – |
| CCc1cc(O)ccc1-c1ccc2c(-c3nc(C4=CCN(CCS(=O)(=O)NC)C4)c[nH]3)n[nH]c2c1 [Example 96] | 10 to 31.6 | – | A (A represents a pKi value ≥10 (Ki≤0.1 nM)) | 0.1 to 1 | – |
| CCc1cc(O)ccc1-c1ccc2c(-c3nc(C4=CCN(CC(=O)NC)C4)c[nH]3)n[nH]c2c1F [Example 97] | 3.16 to 10 | – | A (A represents a pKi value ≥10 (Ki≤0.1 nM)) | 0.1 to 1 | – |
| CCc1cc(O)ccc1-c1ccc2c(-c3nc(C4=CCN(C5CCNC5=O)C4)c[nH]3)n[nH]c2c1F (stereo not drawn) [Example 98] | 31.6 to 100 | – | A (A represents a pKi value ≥10 (Ki≤0.1 nM)) | 0.1 to 1 | – |
| CCc1cc(O)ccc1-c1ccc2c(-c3nc(C4=CCN(CCNS(C)(=O)=O)CC4)c[nH]3)n[nH]c2c1 [Example 99] | 10 to 31.6 | A (A represents a pKi value ≥10 (Ki≤0.1 nM)) | A (A represents a pKi value ≥10 (Ki≤0.1 nM)) | – | – |
| CCc1cc(O)ccc1-c1ccc2c(-c3nc(C4=CCN(CCNC(C)=O)CC4)c[nH]3)n[nH]c2c1 [Example 100] | 3.16 to 10 | A (A represents a pKi value ≥10 (Ki≤0.1 nM)) | A (A represents a pKi value ≥10 (Ki≤0.1 nM)) | – | – |
| CCc1cc(O)ccc1-c1ccc2c(-c3nc(C4=CCN(CCNS(=O)(=O)C(C)C)CC4)c[nH]3)n[nH]c2c1 [Example 101] | 10 to 31.6 | – | A (A represents a pKi value ≥10 (Ki≤0.1 nM)) | 0.1 to 1 | – |
| CCc1cc(O)ccc1-c1ccc2c(-c3nc(C4=CCN(CCNC(=O)C(C)C)CC4)c[nH]3)n[nH]c2c1 [Example 102] | 3.16 to 10 | A (A represents a pKi value ≥10 (Ki≤0.1 nM)) | A (A represents a pKi value ≥10 (Ki≤0.1 nM)) | – | – |
| CCc1cc(O)ccc1-c1ccc2c(-c3nc(C4=CCN(CCCNS(C)(=O)=O)CC4)c[nH]3)n[nH]c2c1 [Example 103] | 10 to 31.6 | A (A represents a pKi value ≥10 (Ki≤0.1 nM)) | A (A represents a pKi value ≥10 (Ki≤0.1 nM)) | – | – |
| CCc1cc(O)ccc1-c1ccc2c(-c3nc(C4=CCN(CCCNC(C)=O)CC4)c[nH]3)n[nH]c2c1 [Example 104] | 3.16 to 10 | A (A represents a pKi value ≥10 (Ki≤0.1 nM)) | A (A represents a pKi value ≥10 (Ki≤0.1 nM)) | – | – |
| CCc1cc(O)ccc1-c1ccc2c(-c3nc(C4=CCN(CCCNS(=O)(=O)C(C)C)CC4)c[nH]3)n[nH]c2c1 [Example 105] | 10 to 31.6 | A (A represents a pKi value ≥10 (Ki≤0.1 nM)) | A (A represents a pKi value ≥10 (Ki≤0.1 nM)) | – | – |
